# Experimental data from patent US7001607B1, “Artificial tear replacement solution” (Bausch & Lomb Incorporated, priority 1999, dated 2006).
# Assay: surface tension of components
# Format: physicochemical
row,Molecule,surface tension σ
1,Fc1c(F)c(F)c2c(c1F)c(F)c(F)c1c(F)c(F)c(F)c(F)c12 [perfluorophenanthrene],19 mNm
2,CC[N+]1(CC)CC[N+](CC)(CC)CC1.O=C([O-])C(F)(F)C(F)(F)C(F)(F)C(F)(F)C(F)(F)C(F)(F)C(F)(F)F.O=C([O-])C(F)(F)C(F)(F)C(F)(F)C(F)(F)C(F)(F)C(F)(F)C(F)(F)F [tetraethylpiperazinium salt of perfluorooctanoic acid],15.9 mNm
3,perfluoroalkylethanol oxethylate,19 mNm
